The test system of one test is GMB tumor spheroids. Put plainly: U-87 spheroid Matrigel invasion assay. The format is cell-based. The note with it: GsMTx4 in culture media, 3D matrix. The protocol: Spheroids (which resemble a GBM tumor in vitro) are formed via the hanging drop procedure. For this, cells were seeded into a carboxymethylcellulose solution (with very high viscosity) and pipetted on the inner side of the lid of a cell culture plate. After reversing the lid and putting it back onto the cell culture plate, the cells are hanging in a drop of carboxymethylcellulose. Because of the high viscosity of the media and no possibility to attach, the cells form spheroids. […] During incubation cells start migrating out of the spheroid and invading the 3D matrix. The higher the invasive potential of the cells, the more they will invade the 3D matrix.

For a further test, the system named is hippocampal neurons. Kind of test: Calcium sensitive FURA-2 imaging of hippocampal neurons after KCl depolarization. The note with it: GsMTx4, KCl depolarization. The format is cell-based, rat. The protocol:
Calcium sensitive imaging: Intracellular calcium levels were measured with the cell permeable probe FURA-2-acetoxymethyl ester (Invitrogen Life Technologies GmbH). Cells were exposed to 5 μM FURA-2-AMin DMSO (final concentration of 0.2%) for 45 minutes in a humidified incubator at 37° C. Increase in intracellular calcium levels following depolarization with 50 mM KCl was analyzed by the change in the absorption and emission spectra of FURA-2 upon Ca^2+ binding using a custom-built perfusion chamber mounted to a Zeiss Observer Z1 and the ZEN blue software (Zeiss AG, Germany).The rate of intracellular Ca^2+ increase was calculated as the slope of the linear portion of the increase in FURA-2 intensity.

The subject of test [1] is rat hippocampal neurons and astrocytes. Put plainly: Neuron-astrocyte association in mixed primary hippocampal cultures. The format is cell-based. The settings on record: GsMTx4 5 μM, smooth glass substrates. The text has this:
The inventors therefore evaluated the response of mixed primary cultures of rat hippocampal neurons and astrocytes to the different roughness regimes.
An also remarkable finding was that nanoroughness appeared to modulate the relationship, and dependency of neurons on astrocytes. […] After 5 days, the percent neurons that were associated with astrocytes on the 32 nm Rq surface was around 15%, which was 1.5-2 fold lower than those on other Rq's, which ranged from 20-40%, and 6 fold lower than that on the smooth glass substrate (FIG. 4c). That is, in comparison to the other Rq's, over twice as many neurons on 32 nm Rq surface were surviving independently of astrocytes. At 6 weeks however, the percent of neurons that were surviving independently of astrocytes on the 32 nm Rq was over 6 fold greater in comparison to the other Rq's. While over 90% of neurons were associated with astrocytes on other roughnesses, only 15% of neurons were associated with astrocytes on 32 nm Rq (FIG. 4d). […]
Cell density/composition analysis: In order to analyze the cell density and composition of mixed neuron/astrocyte cultures on the different substrates at the end of the experiments, MAP-2^+, GFAP^+ and Tuj-1^+ cells were counted in 4 separately isolated cultures in 10 random image sections and on two different substrates of each isolated culture.

Entries after “also recorded” stand apart in the source; their conditions may differ. Where no end group is shown, it is not given here.

Consider “GsMTx4 (GCLEFWWKCNPNDDKCCRPKLKCSKLFKLCNFSF; ends and bridges not checked; cysteine pairing not given here)”, for which the “formation of sprouts from tumor spheroids (invasiveness)” value in the test on GMB tumor spheroids is reported as “significantly reduced; also recorded: less invasive potential”. Moreover, in the test with hippocampal neurons, the “FURA-2 intensity profile and rate of calcium influx upon depolarization, smooth glass versus Rq=32 nm, upon inhibition of Piezo-1” value was “is lost upon inhibition of Piezo-1; also recorded: identical”. For the same substance, the “neuron-astrocyte coupling upon inhibition of Piezo-1 (FAM38A)” value in test [1] is listed as “neurons decouple from astrocytes even on smooth glass substrates; also recorded: decoupling of hippocampal neurons from astrocytes”.

These data come from US11191874B2, “Biomaterials for neuronal implants and use of said biomaterials in the diagnosis and therapy of neuronal diseases” (Albert-Ludwigs-U[…], priority 2014, dated 2021).
